Test results reported in BindingDB's records for doi:10.1016/j.bioorg.2017.01.006 (Jaipur National University, 2017).

Molecular target: Gag-Pol polyprotein (Human immunodeficiency virus type 1 group M subtype B (isolate HXB2), UniProt P04585)
Experiment: RT Assay
Settings: 37 °C
Procedure: To a lysis buffer (20 μl), 4-6 ng recombinant HIV-1-RT was added in separate reaction tubes. Lysis buffer without HIV-1-RT was used as a negative control. Standards and test compound RT inhibitor (10 μg) were diluted with lysis buffer. This mixture was incubated for 1 h at 37 °C. For the number of micro plate modules to be used, enough foil bags were opened and micro plate modules were put into the frame in the correct orientation. The above samples were transferred to wells of microplate module. After addition it was covered with cover foil and incubated at 37 °C for 1 h. Solution was removed and rinsed five times with 250 μl of washing buffer per well for 30 s to each well. Then washing buffer was removed carefully. 200 μl of anti-DIG-POD working dilution was added to individual well and covered with cover foil and incubated at 37 °C for 1 h. Anti-DIG-POD working dilution solution was completely removed. Microplate module were washed five times for 30 s with washing buffer 250 μl and removed. 200 μl of ABTS substrate solution was added to individual well and incubated between 15 °C and 25 °C till (15−30 min) green color was obtained.

Row | SMILES | IC50 [nM]
1 | Cc1cc(/C=C/C#N)cc(C)c1Nc1ccnc(Nc2ccc(C#N)cc2)n1 [Rilpivirine] | 68
2 | CC1=C(C(=O)NC(=O)CN2C(=O)C(=O)c3ccccc32)C(c2ccc(Cl)cc2)NC(=O)N1 (stereo not given) [4-(4-Chlorophenyl)-N-(2-(2,3-dioxoindolin-1-yl)acetyl)-6-methyl-2-oxo-1,2,3,4-tetrahydro pyrimidine-5-carboxamide (9h)] | > 100
3 | CC1=C(C(=O)NC(=O)CN2C(=O)C(=O)c3ccccc32)C(C)NC(=O)N1 (stereo not given) [N-(2-(2,3-Dioxoindolin-1-yl)acetyl)-4,6-dimethyl-2-oxo-1,2,3,4-tetrahydropyrimidine-5-carboxamide (9c)] | 64

Other lines, results leading:

Row | IC50 [nM] | SMILES
4 | > 100 | CCCC1NC(=O)NC(C)=C1C(=O)NC(=O)CN1C(=O)C(=O)c2ccccc21 (stereo not given) [N-(2-(2,3-Dioxoindolin-1-yl)acetyl)-6-methyl-2-oxo-4-propyl-1,2,3,4-tetrahydropyrimidine-5-carboxamide (9e)]
5 | 67 | CCC1NC(=O)NC(C)=C1C(=O)NC(=O)CN1C(=O)C(=O)c2ccccc21 (stereo not given) [N-(2-(2,3-Dioxoindolin-1-yl)acetyl)-4-ethyl-6-methyl-2-oxo-1,2,3,4-tetrahydropyrimidine-5-carboxamide (9d)]
